From patent US20220370464A1, “COMPOSITIONS AND METHODS OF TREATING OR PREVENTING OCULAR INFECTIONS WITH FILOCICLOVIR” (Microbiotix, Inc., priority 2019, published 2022)
Read-outs that look alike come from different tables or passages of the source.

How the values were obtained:
ocular AdV infections = details: literature, cited from earlier work
AdV 7 = assay: Antiviral EC50 against AdV 7 (method not given); assay type: cell-based, adenovirus 7; details: Human mastadenovirus B; AdV 7, summary table
AdV 8 = assay: Antiviral EC50 against AdV 8 (method not given); assay type: cell-based, adenovirus 8; details: unidentified adenovirus; AdV 8, summary table
Adenovirus 6 (AdV6) = assay: Neutral red survival assay, AdV6 in A549 cells; assay type: cell-based
Method: (§1) Similar experiments were carried out with filociclovir against adenovirus 6, adenovirus 7, and adenovirus 8.
(§2) The neutral red cell cytotoxicity assay is used to detect cell viability or drug cytotoxicity. The principle of this assay is based on the detection of viable cells via the uptake of the dye neutral red. Neutral red is a eurhodin dye that stains lysosomes in viable cells. Viable cells can take up neutral red via active transport and incorporate the dye into their lysosomes, but non-viable cells cannot not take up this chromophore. Consequently, after washing, viable cells can release the incorporated dye under acidified-extracted conditions. The amount of released dye can be used to determine the total number of viable cells or drug cytotoxicity. As such, cytotoxicity is expressed as a concentration-dependent reduction of the uptake of neutral red after exposure to the compound under investigation.
(§3) Neutral red survival assays were carried out in a 96-well format. Briefly, A549 adenocarcinomic human alveolar basal epithelial cells were plated at a concentration of 6×10^3 cells per well one day prior to infection. AdV6 infections were carried out at 5×10^3 PFU per well (an estimated 0.5 PFU/cell at the time of infection). […] Filociclovir plates were read and the results were graphed using GraphPad Prism graphing and statistical software (GraphPad Software, San Diego, Calif.).

[1] = Cytotoxicity, neutral red, uninfected drug control wells of A549 cells; assay type: cell-based; details: human, AdV6 row of Table 2
Source text: as §2
as §3, with “infection). Filociclovir was serially diluted 1:3 on separate 96-well plates with a no drug final row as control.” for “infection).”

AdV7 = assay: CPE reduction assay, adenovirus 7; assay type: cell-based
Method: as §1

AdV5 = assay: Immunofluorescence assay of AdV5-infected A549 cells (DBP and hexon staining); assay type: cell-based, adenovirus 5; details: 27 hours post-infection
Method: (§4) Human A549 cells on glass coverslips in 6-well plates were infected at an MOI of 5 PFU/cell with either AdV5 or AdV6 or were mock-infected. After 1 hour, filociclovir was added to a final concentration of 40, 10, 4, or 0 μM. At 27 hours post-infection, the A549 cells were fixed in paraformaldehyde (3.7% in PBS) and permeabilized with methanol. Cells were stained for the Adenovirus DNA-binding protein (DBP; green staining in images) and adenovirus hexon (red staining in images). DBP staining will be […] and uniform during early AdV infection (prior to AdV DNA replication). DBP associates with replication centers as the infection progresses. The replication centers are initially small “dots” (each dot results from one incoming AdV genome). The replication centers will expand and “multiply” as DNA replication takes place. The nuclei become enlarged and misshapen as infection progresses. AdV hexon, the most abundant component of the AdV viral capsid, is not expressed until after DNA replication is taking place and is therefore considered to be a “late” AdV protein.

AdV6 = assay: Immunofluorescence assay of AdV6-infected A549 cells (DBP and hexon staining); assay type: cell-based, adenovirus 6; details: 27 hours post-infection
Method: as §4

[2] = Pharmacokinetics in immunosuppressed Syrian hamsters; assay type: in vivo; details: for detectability after administration (FIG. 5): 6 hours after administration
Method: In order to test the pharmacokinetics of filociclovir, Syrian hamsters were given either an oral (p.o. 50 mg/kg) or intravenous (i.v. 10 mg/kg) dose of filociclovir.
For i.v. administration, filociclovir was dissolved in DMSO (Sigma D2650) and then diluted with water to a final concentration of 5 mg/ml for filociclovir and 75% DMSO. The dosing solutions were prepared one day before use and stored at 4° C.
Male hamsters were purchased from Envigo (Harlan) at ˜100 g body weight. […] The animals received three injections of CP before the administration of filociclovir. Two groups of animals (12 hamsters/group) were used for the two routes of administrations. In addition, three untreated animals (the same three hamsters for both routes) served as mock controls. The p.o. and i.v. experiments were performed on two consecutive days. As the hamsters weighed approximately 100 g, (+/−10%), they were administered 1 ml and 0.2 ml for the p.o. and i.v. routes, respectively, to achieve the desired dose. For both routes, 3 hamsters were sacrificed at 0.5, 1, 3, and 6 h post dosing.
Plasma and liver samples were collected from all animals and stored at −80° C. until analyzed by LC MS as follows: • All samples and standards were processed on ice; • Standard curve is constructed with authentic compound (fresh powder DMSO reconstitution spiked into “blank” Hamster plasma) and all samples spiked with 500 ng/mL carbamezapine (Internal Standard); • Early time point samples are diluted in “blank” hamster plasma (try to attain concentrations on the standard curve); • Sample extracted with 2× sample volume with 0.1% ammonium formate in methanol (i.e. 30 μL sample+60 μL 0.1% ammonium formate in methanol); • Extracted samples centrifuged on maximum setting in microfuge; • Supernatants are analyzed by LC/MS/MS Dynamic Multiple Reaction Monitoring (DMRM) utilizing custom method.

HHV-6A = details: β Herpesvirus, cited from earlier work
HHV-6B = details: cited from earlier work
EBV = details: γ Herpesvirus, cited from earlier work
HHV-8 = details: γ Herpesvirus, cited from earlier work
BK Virus = details: Polyomavirus, cited from earlier work

Structure (SMILES): Nc1ccn(C[C@@H](CO)OCP(=O)(O)O)c(=O)n1 [CDV, cidofovir, reference compound]
- ocular toxicity (ocular AdV infections; even at low doses): substantial ocular toxicity
- improvement in the symptoms or course of the disease (ocular AdV infections; ocular AdV infections): not exhibited a statistically significant improvement

Structure (SMILES): Nc1nc2c(ncn2/C=C2/CC2(CO)CO)c(=O)[nH]1 [Filociclovir, 2-amino-9-{(Z)-[2,2-bis(hydroxymethyl)cyclopropylidene]methyl}-3,9-dihydro-6H-purin-6-one]
- EC50 (AdV 7): 1000 nM
- EC50 (AdV 8): 2000 nM
- concentration effective to improve viability of AdV6 infected cells (FIG. 2) (Adenovirus 6 (AdV6); A549 cells, 6 days post-infection, 'as low as'): ≥ 10^−1 μM
- CC50/EC50 (Adenovirus 6 (AdV6); AdV6): 27
- CC50 at 6 days [1]: > 100 µM
- CC50/EC50 (AdV7): >144
- hexon-positive cells (AdV5; AdV5, A549, 4 μM): Some hexon-positive cells
- hexon-positive cells (AdV5; AdV5, A549, 10 μM): extremely few hexon-positive cells
- hexon-positive cells (AdV5; AdV5, A549, 40 μM): No hexon-positive cells
- hexon-positive cells (AdV6; AdV6, A549, 4 μM): Some hexon-positive cells
- hexon-positive cells (AdV6; AdV6, A549, 10 μM): extremely few hexon-positive cells
- hexon-positive cells (AdV6; AdV6, A549, 40 μM): No hexon-positive cells
- oral bioavailability ([2]; hamsters): good oral bioavailability
- detectability after administration (FIG. 5) ([2]; i.v. 10 mg/kg): still detectable
- detectability after administration (FIG. 5) ([2]; p.o. 50 mg/kg): still detectable
- EC50 (HHV-6A; listed as filociclovir): ≤ 10000 nM
- EC50 (HHV-6A): 1300 nM
- EC50 (HHV-6B): 2300 ± 1000 nM
- EC50 (HHV-6B; listed as filociclovir): ≤ 10000 nM
- EC50 (EBV; listed as filociclovir): ≤ 10000 nM
- EC50 (EBV): 1000 ± 940 nM
- EC50 (HHV-8; listed as filociclovir): ≤ 10 µM
- EC50 (HHV-8): 5.6 ± 5 µM
- EC50 (BK Virus; listed as filociclovir): ≤ 50 µM
- EC50 (BK Virus): 34 ± 17 µM
